# Laboratory results taken from patent publication US9662327B2 (AGIOS PHARMACEUTICALS, INC, priority 2011, dated 2017).
# Like-named read-outs stand apart in the source and are kept apart here.
# Tests used:
# [1] = tested on: HT1080 cells; assay: Cellular assay for IDH1m inhibitors: inhibition of 2-HG production in HT1080 cells (LC-MS); assay type: cell-based; conditions: Homo sapiens, HT-1080, 48 hours
# Experimental: (§1) Cells (e.g., HT1080 or U87MG) are grown in T125 flasks in DMEM containing 10% FBS, 1× penicillin/streptomycin and 500 ug/mL G418. They are harvested by trypsin and seeded into 96 well white bottom plates at a density of 5000 cell/well in 100 ul/well in DMEM with 10% FBS. No cells are plates in columns 1 and 12. Cells are incubated overnight at 37 C in 5% CO2. The next day compounds are made up at 2× concentration and 100 ul are added to each cell well. The final concentration of DMSO is 0.2% and the DMSO control wells are plated in row G. The plates are then placed in the incubator for 48 hours. At 48 hours, 100 ul of media is removed from each well and analyzed by LC-MS for 2-HG concentrations. The cell plate is placed back in the incubator for another 24 hours. At 72 hours post compound addition, 10 mL/plate of Promega Cell Titer Glo reagent is thawed and mixed. The cell plate is removed from the incubator and allowed to equilibrate to room temperature. Then 100 ul of reagent is added to each well of media. The cell plate is then placed on an orbital shaker for 10 minutes and then allowed to sit at room temperature for 20 minutes. The plate is then read for luminescence with an integration time of 500 ms.
# [2] = biological target: IDH1 R132H (Homo sapiens (Human), UniProt O75874, R132H); assay: Assays for IDH1 R132H Inhibitors (NADPH/aKG, resazurin detection); assay type: biochemical; conditions: IDH1 R132H enzyme
# Summary of the method: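 Mutant enzyme in 150 mM NaCl, 10 mM MgCl2, 20 mM Tris pH 7.5, 0.03% BSA; compound in DMSO added to substrate mix of 8 uM NADPH and 2 mM aKG. Reaction ran 50 min at room temperature, then resazurin detection mix (30 μM) added for 5 min at room temperature.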
# [3] = tested on: U87R132H (U87MG) cells; assay: Cellular assay for IDH1m inhibitors: inhibition of 2-HG production in U87MG (U87R132H) cells (LC-MS); assay type: cell-based; conditions: Homo sapiens, U-87 MG, 48 hours
# Experimental: as §1
# [4] = Table 2, read-out: IDHR132H Activity
# Sequence of IDH1 R132H (O75874 whole entry R132H): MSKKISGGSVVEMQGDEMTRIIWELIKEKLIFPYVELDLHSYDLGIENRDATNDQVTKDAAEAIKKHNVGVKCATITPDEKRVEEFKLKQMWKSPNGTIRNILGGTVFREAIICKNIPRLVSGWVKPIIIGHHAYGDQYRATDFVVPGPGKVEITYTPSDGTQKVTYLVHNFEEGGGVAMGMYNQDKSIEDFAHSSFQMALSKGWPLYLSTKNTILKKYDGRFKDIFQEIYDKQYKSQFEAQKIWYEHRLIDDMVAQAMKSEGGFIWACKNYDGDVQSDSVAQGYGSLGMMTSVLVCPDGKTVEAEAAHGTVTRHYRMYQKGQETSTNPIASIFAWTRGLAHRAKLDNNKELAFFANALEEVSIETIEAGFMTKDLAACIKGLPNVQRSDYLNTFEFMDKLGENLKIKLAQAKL
Structure (SMILES),IC50 [1] [µM],"IC50 ([2]; Table 3, read-out: R132H IC50) [µM]","IC50 [2, 4] [µM]",other results
"CC(C)[C@@H]1CN(c2nc(C3CC3)c3c(c2C#N)CC(C)(C)OC3)CCN1C(=O)CCC(=O)OCCO [Compound 458, (R)-2-hydroxyethyl 4-(4-(5-cyano-8-cyclopropyl-3,3-dimethyl-3,4-dihydro-1H-pyrano[3,4-c]pyridin-6-yl)-2-isopropylpiperazin-1-yl)-4-oxobutanoate]",0.5 to 1,–,–,IC50 [3]: < 0.5 µM
"C=CC(=O)N1CCc2c(C3CC3)nc(N3CCN(C(=O)C4CC4)[C@H](C4CC4)C3)c(C#N)c2C1 [Compound 482, (R)-6-acryloyl-3-(4-(cyclopropanecarbonyl)-3-cyclopropylpiperazin-1-yl)-1-cyclopropyl-5,6,7,8-tetrahydro-2,6-naphthyridine-4-carbonitrile]",< 0.5,–,–,IC50 [3]: < 0.5 µM
"Cc1nccn1CC(=O)N1CCN(c2nc(C3CC3)c3c(c2C#N)CC(C)(C)OC3)C[C@H]1C(C)C [Compound 380, (R)-8-cyclopropyl-6-(3-isopropyl-4-(2-(2-methyl-1H-imidazol-1-yl)acetyl)piperazin-1-yl)-3,3-dimethyl-3,4-dihydro-1H-pyrano[3,4-c]pyridine-5-carbonitrile]",–,–,1 to 10,–
"CC(C)c1nc(N2CCN(C(=O)Cc3ccccc3F)[C@H](C(C)C)C2)c(C#N)c2c1COC(C)(C)C2 [Compound 215, (R)-6-(4-(2-(2-fluorophenyl)acetyl)-3-isopropylpiperazin-1-yl)-8-isopropyl-3,3-dimethyl-3,4-dihydro-1H-pyrano[3,4-c]pyridine-5-carbonitrile]",–,–,1 to 10,–
CC(C)[C@@H]1CN(c2nc(C3CC3)c3c(c2C#N)CC(C)(C)OC3)CCN1C(=O)COCCO [Compound 348],–,–,1 to 10,–
"CC(C)c1nc(N2CCN(C(=O)c3ccco3)[C@H](c3ccccc3)C2)c(C#N)c2c1COC(C)(C)C2 [Compound 200, (R)-6-(4-(furan-2-carbonyl)-3-phenylpiperazin-1-yl)-8-isopropyl-3,3-dimethyl-3,4-dihydro-1H-pyrano[3,4-c]pyridine-5-carbonitrile]",–,–,1 to 10,–
"CCC(=O)N1CCN(c2nc(C3CCCCC3)c3c(c2C#N)CCOC3)C[C@H]1C [Compound 363, (R)-8-cyclohexyl-6-(3-methyl-4-propionylpiperazin-1-yl)-3,4-dihydro-1H-pyrano[3,4-c]pyridine-5-carbonitrile]",–,–,1 to 10,–
"CC(C)[C@@H]1CN(c2nc(C3CC3)c3c(c2C#N)CC(C)(C)OC3)CCN1C(=O)COc1cccnc1 [Compound 399, (R)-8-cyclopropyl-6-(3-isopropyl-4-(2-(pyridin-3-yloxy)acetyl)piperazin-1-yl)-3,3-dimethyl-3,4-dihydro-1H-pyrano[3,4-c]pyridine-5-carbonitrile]",–,–,1 to 10,–
"CCc1nc(N2CCN(C(=O)c3ccoc3)[C@H](C(C)C)C2)c(C#N)c2c1COC(C)(C)C2 [Compound 414, (R)-8-ethyl-6-(4-(furan-3-carbonyl)-3-isopropylpiperazin-1-yl)-3,3-dimethyl-3,4-dihydro-1H-pyrano[3,4-c]pyridine-5-carbonitrile]",–,–,1 to 10,–
CC(C)[C@@H]1CN(c2nc(C3CC3)c3c(c2C#N)CC(C)(C)OC3)CCN1C(=O)Cc1cccs1 [Compound 194],–,–,< 0.5,–
"Cc1ccc(NC(=O)N2CCN(c3nc(C4CCCCC4)c4c(c3C#N)CCOC4)C[C@H]2C)cc1 [Compound 280, (R)-4-(5-cyano-8-cyclohexyl-3,4-dihydro-1H-pyrano[3,4-c]pyridin-6-yl)-2-methyl-N-p-tolylpiperazine-1-carboxamide]",–,–,1 to 10,–
"COc1ccccc1CC(=O)N1CCN(c2nc(C(C)C)c3c(c2C#N)CC(C)(C)OC3)C[C@H]1C [Compound 199, (R)-8-isopropyl-6-(4-(2-(2-methoxyphenyl)acetyl)-3-methylpiperazin-1-yl)-3,3-dimethyl-3,4-dihydro-1H-pyrano[3,4-c]pyridine-5-carbonitrile]",–,–,1 to 10,–
"CC(C)c1nc(N2CCN(C(=O)c3ccc(Cl)cc3Cl)CC2)c(C#N)c2c1COCC2 [Compound 106, 6-(4-(2,4-dichlorobenzoyl)piperazin-1-yl)-8-isopropyl-3,4-dihydro-1H-pyrano[3,4-c]pyridine-5-carbonitrile]",–,–,1 to 10,–
"CC1(C)Cc2c(C#N)c(N3CCN(C(=O)c4ccoc4)C(c4ccccc4)C3)nc(C3CCCCC3)c2CO1 (stereo not drawn) [Compound 143, 8-cyclohexyl-6-(4-(furan-3-carbonyl)-3-phenylpiperazin-1-yl)-3,3-dimethyl-3,4-dihydro-1H-pyrano[3,4-c]pyridine-5-carbonitrile]",–,–,1 to 10,–
"COC(=O)N1CCN(c2nc(C3CC3)c3c(c2C#N)CC(C)(C)OC3)C[C@H]1C(C)C [Compound 346, (R)-methyl 4-(5-cyano-8-cyclopropyl-3,3-dimethyl-3,4-dihydro-1H-pyrano[3,4-c]pyridin-6-yl)-2-isopropylpiperazine-1-carboxylate]",–,–,< 0.5,–
COc1ccccc1CC(=O)N1CCN(c2nc(C3CC3)c3c(c2C#N)CC(C)(C)OC3)C[C@H]1C(C)C [Compound 208],–,–,0.5 to 1,–
"CC1(C)Cc2c(C#N)c(N3CCN(C(=O)C4CC4)C(CC(F)(F)F)C3)nc(C3CC3)c2CO1 (stereo not drawn) [Compound 471, 6-(4-(cyclopropanecarbonyl)-3-(2,2,2-trifluoroethyl)piperazin-1-yl)-8-cyclopropyl-3,3-dimethyl-3,4-dihydro-1H-pyrano[3,4-c]pyridine-5-carbonitrile]",–,0.5 to 1,–,–
"C[C@@H]1CN(c2nc(C3CCCCC3)c3c(c2C#N)CCOC3)CCN1C(=O)C1CC1 [Compound 375, (R)-8-cyclohexyl-6-(4-(cyclopropanecarbonyl)-3-methylpiperazin-1-yl)-3,4-dihydro-1H-pyrano[3,4-c]pyridine-5-carbonitrile]",–,–,1 to 10,–
"CC(C)c1nc(N2CCN(C(=O)c3ccco3)C(C)C2)c(C#N)c2c1CCCC2 (stereo not drawn) [Compound 125, 3-(4-(furan-2-carbonyl)-3-methylpiperazin-1-yl)-1-isopropyl-5,6,7,8-tetrahydroisoquinoline-4-carbonitrile]",–,–,1 to 10,–

# Further lines, with some results ahead:
IC50 [1] [µM],"IC50 ([2]; Table 3, read-out: R132H IC50) [µM]","IC50 [2, 4] [µM]",Structure (SMILES),other results
0.5 to 1,< 0.5,–,"C=CC(=O)N1CCc2c(C#N)c(N3CCN(C(=O)CC(F)(F)F)[C@H](C4CC4)C3)nc(C3CC3)c2C1 [Compound 490, (R)-7-acryloyl-1-cyclopropyl-3-(3-cyclopropyl-4-(3,3,3-trifluoropropanoyl)piperazin-1-yl)-5,6,7,8-tetrahydro-2,7-naphthyridine-4-carbonitrile]",–
1 to 10,0.5 to 1,–,C=C(F)C(=O)N1CCc2c(C3CC3)nc(N3CCN(C(=O)CCOC)[C@H](C4CC4)C3)c(C#N)c2C1 [Compound 492],–
0.5 to 1,0.5 to 1,–,"C#CC(=O)N1CCc2c(C#N)c(N3CCN(C(=O)CCO)[C@H](C4CC4)C3)nc(C3CC3)c2C1 [Compound 500, (R)-1-cyclopropyl-3-(3-cyclopropyl-4-(3-hydroxypropanoyl)piperazin-1-yl)-7-propioloyl-5,6,7,8-tetrahydro-2,7-naphthyridine-4-carbonitrile]",–
0.5 to 1,0.5 to 1,–,"C=C(C)C(=O)N1CCc2c(C#N)c(N3CCN(C(=O)CCOC)[C@H](C4CC4)C3)nc(C3CC3)c2C1 [Compound 502, (R)-1-cyclopropyl-3-(3-cyclopropyl-4-(3-methoxypropanoyl)piperazin-1-yl)-7-methacryloyl-5,6,7,8-tetrahydro-2,7-naphthyridine-4-carbonitrile]",–
0.5 to 1,< 0.5,–,"C=CC(=O)N1CCc2c(C#N)c(N3CCN(C(=O)C4CC4)[C@H](C4CC4)C3)nc(C3CC3)c2C1 [Compound 489, (R)-7-acryloyl-3-(4-(cyclopropanecarbonyl)-3-cyclopropylpiperazin-1-yl)-1-cyclopropyl-5,6,7,8-tetrahydro-2,7-naphthyridine-4-carbonitrile]",–
< 0.5,< 0.5,–,"C#CC(=O)N1CCc2c(C#N)c(N3CCN(C(=O)C4CC4)[C@H](C4CC4)C3)nc(C3CC3)c2C1 [Compound 491, (R)-3-(4-(cyclopropanecarbonyl)-3-cyclopropylpiperazin-1-yl)-1-cyclopropyl-7-propioloyl-5,6,7,8-tetrahydro-2,7-naphthyridine-4-carbonitrile]",–
1 to 10,0.5 to 1,–,"N#CCC(=O)N1CCc2c(C#N)c(N3CCN(C(=O)C4CC4)[C@H](C4CC4)C3)nc(C3CC3)c2C1 [Compound 497, (R)-7-(2-cyanoacetyl)-3-(4-(cyclopropanecarbonyl)-3-cyclopropylpiperazin-1-yl)-1-cyclopropyl-5,6,7,8-tetrahydro-2,7-naphthyridine-4-carbonitrile]",–
1 to 10,–,–,"COCCC(=O)N1CCN(c2nc(C3CC3)c3c(c2C#N)CN(S(C)(=O)=O)CC3)C[C@H]1C1CC1 [Compound 487, (R)-1-cyclopropyl-3-(3-cyclopropyl-4-(3-methoxypropanoyl)piperazin-1-yl)-6-(methylsulfonyl)-5,6,7,8-tetrahydro-2,6-naphthyridine-4-carbonitrile]",IC50 [3]: 1 to 10 µM
< 0.5,0.5 to 1,–,C#CC(=O)N1CCc2c(C#N)c(-c3ccc(C(=O)OC)cc3F)nc(C3CC3)c2C1 [Compound 495],–
